Laboratory results published in the supplement of paper PMC10307832.

Legend:
Test in all cases: relative viability (nuclei count vs DMSO), 5 days (fraction); higher = more cells survive
FG-4592 + Vorinostat = compound: Cc1nc(C(=O)NCC(=O)O)c(O)c2ccc(Oc3ccccc3)cc12 [FG-4592] + O=C(CCCCCCC(=O)Nc1ccccc1)NO [Vorinostat] (partner 1 µM)
Summary of the method: (§1)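 Lung cancer cell lines, seeded in 1536-well plates, were treated the following day by pin tool with a single drug or with five library-drug doses (not always all listed) in √10 steps on top of a fixed anchor-drug dose. Cells were fixed and nuclei stained in one step after 5 days, and nuclei were counted. Relative viability is the nuclei count for treated wells divided by that for vehicle wells, reported as medians of duplicate plates.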

FG-4592 + Lapatinib = compound: Cc1nc(C(=O)NCC(=O)O)c(O)c2ccc(Oc3ccccc3)cc12 [FG-4592] + CS(=O)(=O)CCNCc1ccc(-c2ccc3ncnc(Nc4ccc(OCc5cccc(F)c5)c(Cl)c4)c3c2)o1 [Lapatinib] (partner 2 µM)
Summary of the method: as §1

IU1-47 + Phenformin = compound: CC1=CC(=C(N1C2=CC=C(C=C2)Cl)C)C(=O)CN3CCCCC3 [IU1-47] + N=C(N)NC(=N)NCCc1ccccc1 [Phenformin] (partner 250 µM)
Summary of the method: as §1

IU1-47 + Vorinostat = compound: CC1=CC(=C(N1C2=CC=C(C=C2)Cl)C)C(=O)CN3CCCCC3 [IU1-47] + O=C(CCCCCCC(=O)Nc1ccccc1)NO [Vorinostat] (partner 1 µM)
Summary of the method: as §1

Cell Line | relative viability (FG-4592 + Vorinostat; first compound 0.08 µM) | relative viability (FG-4592 + Vorinostat; first compound 0.253 µM) | relative viability (FG-4592 + Vorinostat; first compound 0.8 µM) | relative viability (FG-4592 + Vorinostat; first compound 2.53 µM) | relative viability (FG-4592 + Vorinostat; first compound 8 µM) | relative viability (FG-4592 + Lapatinib; first compound 0.08 µM) | relative viability (FG-4592 + Lapatinib; first compound 0.253 µM) | relative viability (FG-4592 + Lapatinib; first compound 0.8 µM) | relative viability (FG-4592 + Lapatinib; first compound 2.53 µM) | relative viability (FG-4592 + Lapatinib; first compound 8 µM) | relative viability (IU1-47 + Phenformin; first compound 0.08 µM) | relative viability (IU1-47 + Phenformin; first compound 0.253 µM) | relative viability (IU1-47 + Phenformin; first compound 0.8 µM) | relative viability (IU1-47 + Phenformin; first compound 2.53 µM) | relative viability (IU1-47 + Phenformin; first compound 8 µM) | relative viability (IU1-47 + Vorinostat; first compound 0.08 µM) | relative viability (IU1-47 + Vorinostat; first compound 0.253 µM) | relative viability (IU1-47 + Vorinostat; first compound 0.8 µM) | relative viability (IU1-47 + Vorinostat; first compound 2.53 µM) | relative viability (IU1-47 + Vorinostat; first compound 8 µM)
NCI-H460 | 0.707 | 0.691 | 0.771 | 0.748 | 0.755 | 0.923 | 0.768 | 1.05 | 0.94 | 1.1 | 0.599 | 0.536 | 0.614 | 0.532 | 0.313 | 0.766 | 0.724 | 1.05 | 0.819 | 0.801
NCI-H661 | 0.778 | 0.827 | 0.832 | 0.755 | 0.839 | 0.446 | 0.462 | 0.578 | 0.473 | 0.403 | 0.286 | 0.295 | 0.28 | 0.245 | 0.291 | 0.805 | 0.861 | 0.798 | 0.836 | 0.761
HCC-15 | 0.975 | 0.796 | 0.776 | 0.82 | 0.829 | 0.883 | 0.706 | 0.852 | 0.871 | 0.944 | 0.482 | 0.497 | 0.557 | 0.491 | 0.432 | 0.885 | 0.894 | 0.946 | 0.766 | 0.731
ABC-1 | 1.14 | 1.01 |  | 1.14 | 1.03 | 1.11 | 1.11 | 1.06 | 1.08 | 0.801 | 0.212 | 0.234 | 0.202 |  | 0.247 | 1.32 | 1.08 | 0.987 |  | 1.06
EPLC-272H | 0.41 | 0.487 | 0.41 | 0.559 | 0.472 | 1.12 | 0.795 | 0.586 | 0.962 | 0.916 | 0.294 | 0.298 | 0.23 |  | 0.243 | 0.382 | 0.55 | 0.494 | 0.394 | 0.461
